Literature values in patent US20190015445A1, “INJECTION […] DIOXIDE AND METHOD FOR MAKING SAME” (priority 2016, published 2019).
Like-named read-outs stand apart in the source and are kept apart here.

In the case of `[O][Cl+][O-]` [chlorine dioxide], the “solubility of chlorine dioxide” value (at 20° C., aqueous solution) is listed as “about 2.9 g/L” and the “solubility of chlorine dioxide” value (at room temperature) is listed as 2900 µg/mL.
